# From ChEMBL document CHEMBL5728748 (2021)
# Experiment: TarO Biochemical Enzymatic Assay: The TarO biochemical enzymatic assay is a liquid chromatography-mass spectroscopy (LC-MS) based end point assay that measures C55-P-P-GlcNAc (LIPID III) production. The TarO biochemical enzymatic assay was performed in a 384-well microtiter plate (Labcyte) with a reaction volume of 20 μl. The reaction mix contained 0.1 μgs/μl of TarO membrane preparation derived from MRSA COL (lysostaphin/lysozyme treated, centrifuged at 40K rpm, and re-suspended in 50 mM Tris pH 7.5, 10 mM MgCl2), 1500 μM UDP-GlcNAc, x 75 μM C55-P substrates in 83 mM Tris pH 8.0, 6.7 mM MgCl2, 6 mM CHAPS, and 8.3% DMSO buffer. The enzyme reactions were quenched by extraction in 40 μl of 1-pentanol containing 0.04 μM […] C55-PP-GlcNAc, which was used as an internal standard. A 10 μl volume of the quenched reaction mixture (pH≈3) from each well was injected onto a reversed-phase column (C4, 5 m, 2.1×50 mm, Thermo Scientific Biobacis-4) and eluted using a NH4Ac/H2O/MeOH gradient (solvent A: 10 mM NH4Ac in water, pH 5.6; solvent B: NH4Ac (1 M)-Isopropanol (1:90, v/v, pH 5.6). The HPLC conditions were as follows: 15% solvent B for 15 seconds followed by a gradient to 90% solvent B in 90 seconds; then solvent B was kept at 95% for 10 seconds followed by a gradient to 8% solvent B in 0.1 minute. The column was then equilibrated at 15% B for 1 minute before the next injection. The flow rate was kept constant at 600 μl/minute. Mass spectrometric detection was carried out in the negative-ion mode using selected reaction monitoring (SRM). Typical mass spectrometric conditions were as follows: heated capillary temperature, 210° C.; spray voltage, 2500 V; desolvation gas (N2), 40 l/h; auxiliary gas (N2), 35 l/h. Selected ion current (SIC) chromatograms of C55-PP-GlcNAc and internal standard 15C C55-PP-GlcNAc were plotted and integrated using LCQuan incorporated in Xcalibur software (ThermoFinnigan). The linearity of C55-PP-GlcNAc concentration versus mass spectrometric signal (AC55-PP-GlcNAc/A15C-C55-PP-GlcNAc) was determined with purified C55-PP-GlcNAc. The IC50 values were calculated using the nonlinear regression analysis (sigmoidal dose response fit allowing for a variable slope) of percent inhibition data with minimum and maximum values set to 0 and 100 percent.
row,SMILES,IC50
1,O=C(NCc1cncc2ccccc12)N1C(=O)O[C@H](c2cc(F)cc(C(F)(F)F)c2)[C@@H]1CCO,4770 nM
2,C[C@H]1[C@@H](c2cc(N3CCC(F)(F)C3)cc(C(F)(F)F)c2)OC(=O)N1C(=O)NCc1cccc2cncnc12,260 nM
3,CC[C@H]1[C@@H](c2cc(C(F)(F)F)cc(C(F)(F)F)c2)OC(=O)N1C(=O)CCc1cncc2ccccc12,60 nM
4,Cc1ccc2c(n1)N(CCC(=O)N1C(=O)O[C@H](c3cc(F)cc(C(F)(F)F)c3)[C@@H]1C)CCO2,240 nM
5,O=C(CCc1cncc2ccccc12)N1C[C@H](c2cc(C(F)(F)F)cc(C(F)(F)F)c2)OC1=O,540 nM
6,COc1cccc([C@H]2OC(=O)N(C(=O)CCc3cccc4ccccc34)[C@H]2C)n1,3000 nM
7,C[C@H]1[C@@H](c2cccc(Br)n2)OC(=O)N1C(=O)CCc1cccc2ccccc12,480 nM
8,COc1cc([C@H]2OC(=O)N(C(=O)NCc3cncc4cccnc34)C[C@H]2C)cc(C(F)(F)F)c1,1260 nM
9,C[C@H]1[C@@H](c2cc(Br)cc(C(F)(F)F)c2)OC(=O)N1C(=O)CCc1cncc2ccccc12,1490 nM
10,COc1cccc([C@H]2OC(=O)N(C(=O)CCc3cncc4ccccc34)[C@H]2C)c1,1200 nM
11,C[C@@H]1NN(C(=O)NCc2cncc3ccccc23)C(=O)O[C@@H]1c1cc(F)cc(C(F)(F)F)c1,950 nM
12,O=C(CCc1cncc2ccccc12)N1CC(c2cccc(F)c2F)OC1=O (centres undefined),1200 nM
13,C[C@H]1[C@@H](c2cc(C(F)(F)F)cc(C(F)(F)F)c2)OC(=O)N1C(=O)COc1cccc2ccccc12,40 nM
14,COc1cc(C(F)(F)F)nc([C@@H]2OC(=O)N(C(=O)NCc3cncc4ccccc34)[C@H]2C)n1,2170 nM
15,Cc1cccc(OCC(=O)N2C(=O)O[C@H](c3cccc(C(F)(F)F)c3)[C@@H]2C)c1C,680 nM
16,C[C@H]1[C@@H](c2cc(C(F)(F)F)ccn2)OC(=O)N1C(=O)CCc1cncc2ccccc12,6980 nM
17,C[C@H]1[C@@H](c2ccc(F)c(F)c2)OC(=O)N1C(=O)CCc1cncc2ccccc12,4640 nM
18,C[C@H]1[C@@H](c2cc(N(C)C)cc(C(F)(F)F)c2)OC(=O)N1C(=O)NCc1cncc2ccccc12,30 nM
19,"C[C@H]1CN(C(=O)NCc2cncc3ccccc23)C(=O)O[C@@H]1c1cc(C(F)(F)F)cc(C(F)(F)F)c1 (single isomer, unassigned)",30 nM
